Reference: PubChem BioAssay (NCI)
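Protocol summary: plate cells (96-well), add compound at 5 concentrations, incubate 48 h, interpolate endpoints linearly. GI50 = concentration required for 50% inhibition of growth. TGI: concentration producing complete growth inhibition.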

Tests used:
Assay in all cases: DTP human tumour cell line panel, 48 h
786-0 renal = tested on: 786-0 renal
A498 renal = tested on: A498 renal
A549 NSCLC = tested on: A549 NSCLC
ACHN renal = tested on: ACHN renal
BT-549 breast = tested on: BT-549 breast
CAKI-1 renal = tested on: CAKI-1 renal
CCRF-CEM leukemia = tested on: CCRF-CEM leukemia
COLO 205 colon = tested on: COLO 205 colon
DU-145 prostate = tested on: DU-145 prostate
HCC-2998 colon = tested on: HCC-2998 colon
HCT-116 colon = tested on: HCT-116 colon
HCT-15 colon = tested on: HCT-15 colon
HL-60(TB) leukemia = tested on: HL-60(TB) leukemia
HOP-62 NSCLC = tested on: HOP-62 NSCLC
HOP-92 NSCLC = tested on: HOP-92 NSCLC
HS 578T breast = tested on: HS 578T breast
HT29 colon = tested on: HT29 colon
IGROV1 ovarian = tested on: IGROV1 ovarian
K-562 leukemia = tested on: K-562 leukemia
KM12 colon = tested on: KM12 colon
LOX IMVI melanoma = tested on: LOX IMVI melanoma
M14 melanoma = tested on: M14 melanoma
MALME-3M melanoma = tested on: MALME-3M melanoma
MCF7 breast = tested on: MCF7 breast
MDA-MB-231 breast = tested on: MDA-MB-231 breast
MDA-MB-435 = tested on: MDA-MB-435
MOLT-4 leukemia = tested on: MOLT-4 leukemia
NCI-H226 lung = tested on: NCI-H226 lung
NCI-H23 lung = tested on: NCI-H23 lung
NCI-H460 lung = tested on: NCI-H460 lung
NCI-H522 lung = tested on: NCI-H522 lung
NCI/ADR-RES ovarian = tested on: NCI/ADR-RES ovarian
OVCAR-3 ovarian = tested on: OVCAR-3 ovarian
OVCAR-4 ovarian = tested on: OVCAR-4 ovarian
OVCAR-5 ovarian = tested on: OVCAR-5 ovarian
OVCAR-8 ovarian = tested on: OVCAR-8 ovarian
PC-3 prostate = tested on: PC-3 prostate
RPMI-8226 leukemia = tested on: RPMI-8226 leukemia
RXF 393 renal = tested on: RXF 393 renal
SF-268 CNS = tested on: SF-268 CNS
SF-295 CNS = tested on: SF-295 CNS
SF-539 CNS = tested on: SF-539 CNS
SK-MEL-2 melanoma = tested on: SK-MEL-2 melanoma
SK-MEL-28 melanoma = tested on: SK-MEL-28 melanoma
SK-MEL-5 melanoma = tested on: SK-MEL-5 melanoma
SK-OV-3 ovarian = tested on: SK-OV-3 ovarian
SN12C renal = tested on: SN12C renal
SNB-19 CNS = tested on: SNB-19 CNS
SNB-75 CNS = tested on: SNB-75 CNS
SR leukemia = tested on: SR leukemia
SW-620 colon = tested on: SW-620 colon
T-47D breast = tested on: T-47D breast
TK-10 renal = tested on: TK-10 renal
U251 CNS = tested on: U251 CNS
UACC-257 melanoma = tested on: UACC-257 melanoma
UACC-62 melanoma = tested on: UACC-62 melanoma
UO-31 renal = tested on: UO-31 renal

Compound `O=C(Nc1cccc(-c2cccc(F)c2)c1)C1CCN(Cc2cccc3cccnc23)CC1` has a GI50 (786-0 renal) of 1.58 µM, a TGI (786-0 renal) of 3.02 µM and a GI50 (A498 renal) of 2.06 µM. The TGI (A498 renal) was 7.09 µM, the GI50 (A549 NSCLC) was 3.47 µM and the TGI (A549 NSCLC) was 13 µM. For the same compound, the GI50 (ACHN renal) was 2.28 µM, the TGI (ACHN renal) was 5.67 µM and the GI50 (BT-549 breast) was 1.79 µM. The TGI (BT-549 breast) was 3.3 µM, the GI50 (CAKI-1 renal) was 1.96 µM and the TGI (CAKI-1 renal) was 4.07 µM. The GI50 (CCRF-CEM leukemia) was 2.67 µM, the TGI (CCRF-CEM leukemia) was 11.2 µM and the GI50 (COLO 205 colon) was 1.62 µM. The TGI (COLO 205 colon) was 3.29 µM, the GI50 (DU-145 prostate) was 4.36 µM and the TGI (DU-145 prostate) was 15.6 µM. For the same compound, the GI50 (HCC-2998 colon) was 1.77 µM, the TGI (HCC-2998 colon) was 3.29 µM and the GI50 (HCT-116 colon) was 1.71 µM. It also gave a TGI (HCT-116 colon) of 3.08 µM, a GI50 (HCT-15 colon) of 1.79 µM and a TGI (HCT-15 colon) of 5.16 µM. For the same compound, the GI50 (HL-60(TB) leukemia) was 1.94 µM, the TGI (HL-60(TB) leukemia) was 4.2 µM and the GI50 (HOP-62 NSCLC) was 3.78 µM. The TGI (HOP-62 NSCLC) was 15.7 µM, the GI50 (HOP-92 NSCLC) was 2.03 µM and the TGI (HOP-92 NSCLC) was 7.22 µM. The GI50 (HS 578T breast) was 1.91 µM, the TGI (HS 578T breast) was 4.55 µM and the GI50 (HT29 colon) was 1.51 µM. For the same compound, the TGI (HT29 colon) was 3.17 µM, the GI50 (IGROV1 ovarian) was 2.1 µM and the TGI (IGROV1 ovarian) was 4.74 µM. The GI50 (K-562 leukemia) was 1.52 µM, the TGI (K-562 leukemia) was 3.87 µM and the GI50 (KM12 colon) was 3.16 µM. The TGI (KM12 colon) was 10.3 µM, the GI50 (LOX IMVI melanoma) was 1.59 µM and the TGI (LOX IMVI melanoma) was 3.12 µM. For the same compound, the GI50 (M14 melanoma) was 1.75 µM, the TGI (M14 melanoma) was 3.3 µM and the GI50 (MALME-3M melanoma) was 1.65 µM. For the same compound, the TGI (MALME-3M melanoma) was 3.28 µM, the GI50 (MCF7 breast) was 1.8 µM and the TGI (MCF7 breast) was 4.16 µM. For the same compound, the GI50 (MDA-MB-231 breast) was 1.9 µM, the TGI (MDA-MB-231 breast) was 3.99 µM and the GI50 (MDA-MB-435) was 1.69 µM. The TGI (MDA-MB-435) was 3.19 µM, the GI50 (MOLT-4 leukemia) was 1.66 µM and the TGI (MOLT-4 leukemia) was 4.77 µM. For the same compound, the GI50 (NCI-H226 lung) was 3.15 µM, the TGI (NCI-H226 lung) was 17.2 µM and the GI50 (NCI-H23 lung) was 3.16 µM. It also gave a TGI (NCI-H23 lung) of 13 µM, a GI50 (NCI-H460 lung) of 1.92 µM and a TGI (NCI-H460 lung) of 3.77 µM. The GI50 (NCI-H522 lung) was 2.16 µM, the TGI (NCI-H522 lung) was 5.1 µM and the GI50 (NCI/ADR-RES ovarian) was 2.76 µM. For the same compound, the TGI (NCI/ADR-RES ovarian) was 10.2 µM, the GI50 (OVCAR-3 ovarian) was 3.51 µM and the TGI (OVCAR-3 ovarian) was 13.2 µM. The GI50 (OVCAR-4 ovarian) was 3.57 µM, the TGI (OVCAR-4 ovarian) was 14.1 µM and the GI50 (OVCAR-5 ovarian) was 2.93 µM. The TGI (OVCAR-5 ovarian) was 11.8 µM, the GI50 (OVCAR-8 ovarian) was 3.53 µM and the TGI (OVCAR-8 ovarian) was 13.8 µM. It also gave a GI50 (PC-3 prostate) of 2.21 µM, a TGI (PC-3 prostate) of 7.09 µM and a GI50 (RPMI-8226 leukemia) of 1.95 µM. For the same compound, the TGI (RPMI-8226 leukemia) was 4.49 µM, the GI50 (RXF 393 renal) was 1.57 µM and the TGI (RXF 393 renal) was 3.47 µM. For the same compound, the GI50 (SF-268 CNS) was 4.05 µM, the TGI (SF-268 CNS) was 16.1 µM and the GI50 (SF-295 CNS) was 1.8 µM. The TGI (SF-295 CNS) was 3.6 µM, the GI50 (SF-539 CNS) was 1.8 µM and the TGI (SF-539 CNS) was 3.56 µM. The GI50 (SK-MEL-2 melanoma) was 2.03 µM, the TGI (SK-MEL-2 melanoma) was 4.29 µM and the GI50 (SK-MEL-28 melanoma) was 1.82 µM. The TGI (SK-MEL-28 melanoma) was 3.57 µM, the GI50 (SK-MEL-5 melanoma) was 1.64 µM and the TGI (SK-MEL-5 melanoma) was 3.06 µM. For the same compound, the GI50 (SK-OV-3 ovarian) was 4.67 µM, the TGI (SK-OV-3 ovarian) was 16.9 µM and the GI50 (SN12C renal) was 1.97 µM. It also gave a TGI (SN12C renal) of 4.83 µM, a GI50 (SNB-19 CNS) of 2 µM and a TGI (SNB-19 CNS) of 4.83 µM. It also gave a GI50 (SNB-75 CNS) of 2.4 µM, a TGI (SNB-75 CNS) of 11.7 µM and a GI50 (SR leukemia) of 1.66 µM. For the same compound, the TGI (SR leukemia) was 4.46 µM, the GI50 (SW-620 colon) was 1.71 µM and the TGI (SW-620 colon) was 3.57 µM. The GI50 (T-47D breast) was 2 µM, the TGI (T-47D breast) was 5.83 µM and the GI50 (TK-10 renal) was 4.3 µM. The TGI (TK-10 renal) was 16.7 µM, the GI50 (U251 CNS) was 1.85 µM and the TGI (U251 CNS) was 3.73 µM. The GI50 (UACC-257 melanoma) was 1.83 µM, the TGI (UACC-257 melanoma) was 3.75 µM and the GI50 (UACC-62 melanoma) was 1.73 µM. The TGI (UACC-62 melanoma) was 3.28 µM, the GI50 (UO-31 renal) was 1.73 µM and the TGI (UO-31 renal) was 4.11 µM.
